From the supplement of paper PMC10307832

How the values were obtained:
Assay in all cases: relative viability (nuclei count vs DMSO), 5 days (fraction); higher = more cells survive
NCI-H1650 = tested on: NCI-H1650
In short: (§1)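 Relative viability was taken as the ratio of nuclei in treated wells to nuclei in vehicle wells. Lung cancer cell lines in 1536-well plates received compounds by pin tool one day after seeding, either one drug alone or a fixed anchor-drug dose plus five library-drug doses (not always all listed) in √10 steps. Nuclei were counted on 4× images after 5 days of treatment, and values are medians of duplicate plates.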

LCLC-103H = tested on: LCLC-103H
In short: as §1

NCI-H1944 = tested on: NCI-H1944
In short: as §1

LU99A = tested on: LU99A
In short: as §1

H3255 = tested on: H3255
In short: as §1

SW 1573 = tested on: SW 1573
In short: as §1

RERF-LC-KJ = tested on: RERF-LC-KJ
In short: as §1

NCI-H23 = tested on: NCI-H23
In short: as §1

PC-3 [JPC-3] = tested on: PC-3 [JPC-3]
In short: as §1

NCI-H1793 = tested on: NCI-H1793
In short: as §1

A-427 = tested on: A-427
In short: as §1

SW 900 = tested on: SW 900
In short: as §1

NCI-H460 = tested on: NCI-H460
In short: as §1

NCI-H2347 = tested on: NCI-H2347
In short: as §1

PC-14 = tested on: PC-14
In short: as §1

LCLC-97TM1 = tested on: LCLC-97TM1
In short: as §1

COR-L23 = tested on: COR-L23
In short: as §1

201T = tested on: 201T
In short: as §1

NCI-H1651 = tested on: NCI-H1651
In short: as §1

NCI-H650 = tested on: NCI-H650
In short: as §1

NCI-H727 = tested on: NCI-H727
In short: as §1

NCI-H838 = tested on: NCI-H838
In short: as §1

LK-2 = tested on: LK-2
In short: as §1

`Clc1ccc(Nc2nnc(Cc3ccncc3)c3ccccc23)cc1` [Vatalanib] + O=C(c1cc(Cc2n[nH]c(=O)c3ccccc23)ccc1F)N1CCN(C(=O)C2CC2)CC1 [Olaparib] (partner 8 µM) was tested, and the relative viability (NCI-H1650; first compound 0.04 µM) was 0.985, the relative viability (NCI-H1650; first compound 0.1265 µM) was 0.734 and the relative viability (NCI-H1650; first compound 0.4 µM) was 0.852. For the same compound, the relative viability (NCI-H1650; first compound 1.265 µM) was 0.74, the relative viability (NCI-H1650; first compound 4 µM) was 0.798 and the relative viability (LCLC-103H; first compound 0.04 µM) was 0.746. It also gave a relative viability (LCLC-103H; first compound 0.1265 µM) of 0.706, a relative viability (LCLC-103H; first compound 0.4 µM) of 0.749 and a relative viability (LCLC-103H; first compound 1.265 µM) of 0.746. For the same compound, the relative viability (LCLC-103H; first compound 4 µM) was 0.764, the relative viability (NCI-H1944; first compound 0.04 µM) was 0.408 and the relative viability (NCI-H1944; first compound 0.1265 µM) was 0.403. The relative viability (NCI-H1944; first compound 0.4 µM) was 0.417, the relative viability (NCI-H1944; first compound 1.265 µM) was 0.392 and the relative viability (NCI-H1944; first compound 4 µM) was 0.384. The relative viability (LU99A; first compound 0.04 µM) was 0.252, the relative viability (LU99A; first compound 0.1265 µM) was 0.281 and the relative viability (LU99A; first compound 0.4 µM) was 0.237. It also gave a relative viability (LU99A; first compound 1.265 µM) of 0.23, a relative viability (LU99A; first compound 4 µM) of 0.309 and a relative viability (H3255; first compound 0.04 µM) of 0.555. It also gave a relative viability (H3255; first compound 0.1265 µM) of 0.579, a relative viability (H3255; first compound 0.4 µM) of 0.596 and a relative viability (H3255; first compound 1.265 µM) of 0.576. The relative viability (H3255; first compound 4 µM) was 0.543, the relative viability (SW 1573; first compound 0.04 µM) was 0.466 and the relative viability (SW 1573; first compound 0.1265 µM) was 0.521. It also gave a relative viability (SW 1573; first compound 0.4 µM) of 0.506, a relative viability (SW 1573; first compound 1.265 µM) of 0.55 and a relative viability (SW 1573; first compound 4 µM) of 0.355. For the same compound, the relative viability (RERF-LC-KJ; first compound 0.04 µM) was 0.879, the relative viability (RERF-LC-KJ; first compound 0.1265 µM) was 1.04 and the relative viability (RERF-LC-KJ; first compound 0.4 µM) was 0.913. For the same compound, the relative viability (RERF-LC-KJ; first compound 1.265 µM) was 0.832, the relative viability (RERF-LC-KJ; first compound 4 µM) was 0.882 and the relative viability (NCI-H23; first compound 0.04 µM) was 0.306. It also gave a relative viability (NCI-H23; first compound 0.1265 µM) of 0.161, a relative viability (NCI-H23; first compound 0.4 µM) of 0.326 and a relative viability (NCI-H23; first compound 1.265 µM) of 0.305. For the same compound, the relative viability (NCI-H23; first compound 4 µM) was 0.28, the relative viability (PC-3 [JPC-3]; first compound 0.04 µM) was 1.15 and the relative viability (PC-3 [JPC-3]; first compound 0.1265 µM) was 1.02. The relative viability (PC-3 [JPC-3]; first compound 0.4 µM) was 0.786, the relative viability (PC-3 [JPC-3]; first compound 1.265 µM) was 1.04 and the relative viability (PC-3 [JPC-3]; first compound 4 µM) was 1.1. It also gave a relative viability (NCI-H1793; first compound 0.04 µM) of 0.871, a relative viability (NCI-H1793; first compound 0.1265 µM) of 0.713 and a relative viability (NCI-H1793; first compound 0.4 µM) of 1.02. For the same compound, the relative viability (NCI-H1793; first compound 1.265 µM) was 0.788, the relative viability (NCI-H1793; first compound 4 µM) was 0.78 and the relative viability (A-427; first compound 0.04 µM) was 0.664. It also gave a relative viability (A-427; first compound 0.1265 µM) of 0.729, a relative viability (A-427; first compound 0.4 µM) of 0.768 and a relative viability (A-427; first compound 4 µM) of 0.666. It also gave a relative viability (SW 900; first compound 0.04 µM) of 0.759, a relative viability (SW 900; first compound 0.1265 µM) of 0.674 and a relative viability (SW 900; first compound 0.4 µM) of 0.997. For the same compound, the relative viability (SW 900; first compound 1.265 µM) was 0.853, the relative viability (SW 900; first compound 4 µM) was 0.93 and the relative viability (NCI-H460; first compound 0.04 µM) was 0.4. For the same compound, the relative viability (NCI-H460; first compound 0.1265 µM) was 0.44, the relative viability (NCI-H460; first compound 1.265 µM) was 0.494 and the relative viability (NCI-H460; first compound 4 µM) was 0.377. For the same compound, the relative viability (NCI-H2347; first compound 0.04 µM) was 0.647, the relative viability (NCI-H2347; first compound 0.1265 µM) was 0.538 and the relative viability (NCI-H2347; first compound 0.4 µM) was 0.643. It also gave a relative viability (NCI-H2347; first compound 1.265 µM) of 0.623, a relative viability (NCI-H2347; first compound 4 µM) of 0.597 and a relative viability (PC-14; first compound 0.04 µM) of 0.192. For the same compound, the relative viability (PC-14; first compound 0.1265 µM) was 0.195, the relative viability (PC-14; first compound 0.4 µM) was 0.295 and the relative viability (PC-14; first compound 1.265 µM) was 0.276. The relative viability (PC-14; first compound 4 µM) was 0.309, the relative viability (LCLC-97TM1; first compound 0.04 µM) was 0.357 and the relative viability (LCLC-97TM1; first compound 0.1265 µM) was 0.375. The relative viability (LCLC-97TM1; first compound 0.4 µM) was 0.338, the relative viability (LCLC-97TM1; first compound 1.265 µM) was 0.39 and the relative viability (LCLC-97TM1; first compound 4 µM) was 0.345. The relative viability (COR-L23; first compound 0.04 µM) was 0.363, the relative viability (COR-L23; first compound 0.1265 µM) was 0.356 and the relative viability (COR-L23; first compound 0.4 µM) was 0.402. For the same compound, the relative viability (COR-L23; first compound 1.265 µM) was 0.337, the relative viability (COR-L23; first compound 4 µM) was 0.345 and the relative viability (201T; first compound 0.04 µM) was 0.833. It also gave a relative viability (201T; first compound 0.1265 µM) of 0.83, a relative viability (201T; first compound 0.4 µM) of 0.904 and a relative viability (201T; first compound 1.265 µM) of 0.842. The relative viability (201T; first compound 4 µM) was 0.83, the relative viability (NCI-H1651; first compound 0.04 µM) was 0.19 and the relative viability (NCI-H1651; first compound 0.1265 µM) was 0.184. It also gave a relative viability (NCI-H1651; first compound 0.4 µM) of 0.195, a relative viability (NCI-H1651; first compound 1.265 µM) of 0.202 and a relative viability (NCI-H1651; first compound 4 µM) of 0.179. The relative viability (NCI-H650; first compound 0.04 µM) was 0.377, the relative viability (NCI-H650; first compound 0.1265 µM) was 0.378 and the relative viability (NCI-H650; first compound 0.4 µM) was 0.414. It also gave a relative viability (NCI-H650; first compound 1.265 µM) of 0.394, a relative viability (NCI-H650; first compound 4 µM) of 0.361 and a relative viability (NCI-H727; first compound 0.1265 µM) of 0.772. The relative viability (NCI-H727; first compound 0.4 µM) was 0.761, the relative viability (NCI-H727; first compound 1.265 µM) was 0.818 and the relative viability (NCI-H727; first compound 4 µM) was 0.758. The relative viability (NCI-H838; first compound 0.04 µM) was 0.774, the relative viability (NCI-H838; first compound 0.1265 µM) was 0.741 and the relative viability (NCI-H838; first compound 0.4 µM) was 0.824. The relative viability (NCI-H838; first compound 1.265 µM) was 0.722, the relative viability (NCI-H838; first compound 4 µM) was 0.702 and the relative viability (LK-2; first compound 0.04 µM) was 0.723. It also gave a relative viability (LK-2; first compound 0.1265 µM) of 0.72, a relative viability (LK-2; first compound 0.4 µM) of 0.792 and a relative viability (LK-2; first compound 1.265 µM) of 0.702. The relative viability (LK-2; first compound 4 µM) was 0.816.
